# Values joined by “and” are separate entries in the source; they are usually repeats but may differ in a detail not shown here. Equal entries are not always repeated. Where two headings read alike, the source gives them in different places.
# What was measured:
# [1] = molecular target: T1, LSD1-HDAC1-CoREST complex (Homo sapiens, UniProt O60341); test: LSD1 HRP-coupled demethylase assay, SP2509/SP2577 analogues; format: biochemical
# T1 construct: full length native LSD1 (UniProt ID: O60341); made in house; host or cells: HEK 293F cells (co-transfection, pcDNA3 vectors)
# Description: The analogues synthesised were then tested for their ability to inhibit LSD1 using purified LSD1-HDAC1-CoREST complex (Fig. 2B). We used an established fluorescent read out horseradish peroxidase (HRP) assay to monitor LSD1 enzymatic activity in the CoREST complex[8] (see ESI ^† for full details).
# 2. Supplementary Information: Biology
# 2.1. LSD-HDAC1-CoREST expression and purification
# Lysis Buffer (Buffer A) Wash Buffer (Buffer B)
# • 50 mM Tris/Cl pH 7.5 • 50 mM Tris/Cl pH 7.5
# • 50 mM Potassium Acetate • 50 mM Potassium Acetate […]
# Cleavage Buffer (Buffer C) Gel Filtration Buffer (Buffer D)
# • 50 mM Tris/Cl pH 7.5 Filtered at vacuum.
# • 50 mM Potassium Acetate • 50 mM Tris/Cl pH 7.5
# • 5 % v/v Glycerol • 50 mM Potassium Acetate
# • 0.5 mM tris(2- • 0.5 mM TCEP carboxyethyl)phosphine (TCEP)
# The CoREST ternary complex was comprised of full length native LSD1 (UniProt ID: O60341), full length HDAC1 (UniProt ID: Q13547) and N-terminally truncated RCOR1 (86-485aa) (UniProt ID:
# Q9UKL0). Protein constructs were cloned into pcDNA3 vector. The RCOR1 constructs contained an N-terminal (His)10(Flag)3 tag followed by a Tev protease cleavage site. The constructs for ternary complex were co-transfected into suspension-grow HEK 293F cells (Thermofisher Scientific) with polyethylenimine (PEI) (Sigma) and harvested after 48 hours. This section of the procedure was carried out as described previously in literature.11,12
# Cell pellets from 1.2 L culture were defrosted, and buffer A (30 mL) was added. The solution was sonicated (Soniprep 150) in an beaker of ice using a 9 mm probe at 10 ampules; operated with 10 […]
# 2.2. SP2509/SP2577 analogues LSD1 HRP-coupled demethylase assay protocol The commercial reagents for the assay were HRP and Amplex® Ultrared, which are available to purchase from ThermoFisher (31490) and Invitrogen (10737474), respectively. HRP was made up to 8 mg/mL stock solution in 1xPBS buffer, divided into 10 µL aliquots, snap-frozen in liquid nitrogen and stored at -80 °C. Amplex® Ultrared was made up to 10 mM solution in DMSO, divided into 20 µL aliquots and wrapped in foil, away from light and stored at -20 °C. For each assay experiment, CoREST complex was diluted to 500 nM in assay buffer (20 mM HEPES pH 7.5 and 50 mM NaCl).
# HRP was defrosted by diluting each aliquot in 90 µL 1xPBS solution, making a 0.8 mg/mL solution.
# Amplex® Ultrared was made up to 200 µM in assay buffer. HRP and Amplex® Ultrared were pre-mixed before addition to the plate. H3K4Me2 substrate (4 mM in deionised water) was diluted to 300 µM in assay buffer. All stocks were stored on ice during assay preparation.
# The assay was carried out using a ‘black well’ 96 well plate (Corning no. 3915) in a reaction volume of 100 μL. The final concentrations in the assay were as follows: 50 nM CoREST complex, 10 μM Amplex® UltraRed, 0.04 mg/mL HRP and 15 μM H3K4Me2 peptide substrate. The final DMSO concentration in each well was 1.1 %. Three wells of each experiments were designated ‘background controls’ and contained 85 μL assay buffer, premixed Amplex® UltraRed and HRP (10 µL) and H3K4Me peptide substrate (300 μM, 5 µL).
# A stock solution of inhibitor (1 -5 mM in DMSO) was subjected to an inhibitor dilution series, in Eppendorf tubes, in 100 % DMSO. Each new inhibitor stock (4 μL) was diluted in assay buffer (1 in 75) within a new Eppendorf set with assay buffer (20 mM HEPES pH 7.5 and 50 m M NaCl), ensuring the percentage of DMSO was consistent throughout the series. To each well of interest, Inhibitor in assay buffer (75 μL) was added, and CoREST complex (500 nM, 10 µL) was added thereafter. The plate was placed on a rocker and pre -incubated for 30 mins. To each well, premixed Amplex® UltraRed and HRP (10 µL) was added before H3K4Me 2 peptide substrate in assay buffer solution (300 μM, 5 µL) was added to the wall of the plate. The plate was covered in foil and spun down for one minute before being placed in the plate reader. The final percentage concentration of DMSO in […]
# HCT116 cells = test: CTG cell viability assay; format: cell-based, human; details: HCT116, CellTiter-Glo, 0.0041-10 uM, 24-48 h (Fig. S3)
# Description: 2.4. CTG cell viability assays
# HCT116 cells were seeded onto 96-well plates at a density of 2000 cells/well and allowed 24 h to settle. Cells were then treated with LSD1 inhibitors (0.0041-10 uM) alongside WT, DMSO and cell free control wells for 24-48 h. After this time, plates were equilibrated to RT for 30 mins, then CellTiter-Glo (Promega, G9242) reagent (5 uL/100 uL media) was added. Cells were lysed on an orbital shaker for 10 mins, then incubated at RT for 2 mins to allow luminescence to stabilise, following which luminescence was recorded on a HiDEX Sense microplate reader. To obtained plotted values, luminescence of each tested well was divided by that of the DMSO control, which were plotted against concentration using GraphPad Prism. […] was applied to obtain apparent IC50 values where possible.
# Figure S3. Cell viability dose response curves
# (1 picture or pasted object on this page, not shown here)
compound,measurement,setting,value
"C/C(=N\NC(=O)c1cccc(S(=O)(=O)N2CCOCC2)c1)c1cc(Cl)ccc1O [SP2509, reference compound]",IC50,"[1]; LSD1 enzymatic activity, complex 50 nM, HRP assay, SP2509 value is mean of three sets, read-out: LSD1-HDAC1-CoREST IC50",54.2 nM
same,IC50,"[1]; per parallel set, each set with SP2509 as reference standard, read-out: IC50 from dose response curves (Figure S1)",52 nM and 56 nM and 55 nM
same,cytotoxic effects in cells,HCT116 cells,significant cytotoxic effects

# Source: article PMC12323867 (RSC Medicinal Chemistry, 2025)
